Test results from US4775691A, “4H-benzo[4,5]cyclohepta[1,2-b]thiophene derivatives” (Sandoz Ltd., priority 1985, dated 1988).
Read-outs that look alike come from different tables or passages of the source.

How the values were obtained:
[1] = system: LPS (E. coli) induced fever in the rat; assay: LPS (E. coli) induced fever test in the rat (Test B), anti-pyretic activity; type: in vivo, rat (Sprague-Dawley); settings: for ED50: Escherichia coli, 2 h, read-out: ED50, Test B
Description: For this test male rats (Sprague-Dawley) of 130-180 g are fasted overnight. Body temperature is measured the following morning using a rectal probe connected to a telethermometer. […] Body temperature is measured 2 hours later and this value taken as the initial temperature. 6 hours after injection, the test animals receive an oral dosage of the test substance suspended in 0.5% tragacanth or tragacanth alone (control). Body temperature is again measured after a further 2 hours.

[2] = system: established adjuvant arthritis in the rat; assay: Adjuvant arthritis test in the rat (Test A), anti-inflammatory activity; type: in vivo; settings: for ED50: read-out: ED50, Test A
Text: For this test, adjuvant arthritis is induced according to the method of Pearson and Wood, "Arthr.

[3] = system: arthritis pain in the rat; assay: Arthritis pain test in the rat (Test C), analgesic activity; type: in vivo, rat (OFA); settings: for ED50: read-out: ED50, Test C
Description: For this test male rats (OFA) of 110-120 g are treated with 0.1 ml of a Myobacterium smegmatis suspension in paraffin oil (0.6 mg Mycobact./0.1 ml oil) injected i.c. into the tail root. Market arthritis in the hind-paws develops ca. 12 days after treatment. 30 mins. before administration of test-substance, control measurement is performed by flexing the foot joint of the right or left hind-paw using a Statham transducer until volcalisation occurs. […] Test substance is administered orally and the flexion procedure repeated 1, 3 and 5 hours subsequently. The pressure at which vocalisation occurs is noted, the value recorded for each rat at each interval being the average value of three successive measurements. Animals in which the vocalisation threshold is doubled with respect to the control measurement are considered to be protected. The ED50 estimated for each post-treatment time according to the Probit method is taken as the dosage at which 50% of animals are protected. Active agents of the invention are active in this test at dosages of from 3.2 to 100 mg/kg.

[4] = fraction of commonly employed acetylsalicylic acid dosage

Structure (SMILES) | ED50 ([1]; po) [mg/kg] | ED50 ([2]; Rattus norvegicus) [mg/kg] | ED50 ([3]; Rattus norvegicus, po) [mg/kg] | ED50 ([1]; oral, rat, dosage at which increase in rectal temperature is 50% of control group) [mg/kg] | indicated daily dosage relative to acetylsalicylic acid, anti-pyretic therapy [1, 4] | ED50 ([2]; established adjuvant arthritis, rat) [mg/kg] | indicated daily dosage relative to acetylsalicylic acid, anti-inflammatory therapy [2, 4] | indicated daily dosage relative to acetylsalicylic acid, analgesic therapy [3, 4] | ED50 ([3]; oral, rat, dosage at which 50% of animals are protected (vocalisation threshold doubled), post-treatment time not stated) [mg/kg]
CC(=O)Oc1ccccc1C(=O)O [Compound B, acetyl-salicylic acid, reference compound] | 161 | 240 | 90 |  |  |  |  |  | 
COC1=Cc2ccccc2/C(=C\C(=O)O)c2cc(Cl)sc21 [Compound A, [2-chloro-10-methoxy-4H-benzo[4,5]-cyclohepta[1,2-b]thiophen-4-ylidene]acetic acid (E)-isomer] |  |  |  | 14 ± 5 | 1/10 | 10 ± 2 | 1/24 | 1/5 | 18
